# Experimental data from patent publication US20190183100A1, “ANIMAL MODELS FOR POLYCYSTIC KIDNEY DISEASE” (Recombinetics, Inc., priority 2017, published 2019).
# Experiments:
# PKD1^FLEX-CreER2 = test: Tamoxifen activation of PKD1^FLEX-CreER2 cassette in LLC-PK1 cells in vitro; assay type: cell-based, pig; conditions: after tamoxifen treatment, LLC-PK1 targeted cells, expected
# Method: Testing of PKD1^FLEX-CreER2 is conducted using the immortalized pig kidney cell line, LLC-PK1. Prior to conducting studies with the cassette integrated into cells, the efficacy of Cre recombination is optimized in transient transfections +/− tamoxifen and measure recombination by qPCR.
# In vitro testing in the LLC-PK1, PKD1^FLEX-CreER2 targeted cells: The model cells developed above are treated in triplicate with 3 dosages of tamoxifen, and compared to non-treated cells. Percent recombination of the PKD1^FLEX-CreER2 cassette is analyzed visually for the loss of EGFP using FACS and molecularly by quantitative PCR for molecular quantification of recombination. Splicing of the PKD1^FLEX-CreER2 cassette is analyzed before and after recombination by RT-PCR from exon 14 to exon 16, followed by Sanger sequencing and qRT-PCR using primers spanning exon junctions of E14-15 and E15-16 respectively. Finally, induced and non-induced populations are compared at the protein level by western blotting.
# porcine PKHD1 [1] = test: Injection of in vivo produced porcine embryos, genotype of born piglets; design: species or system pig; conditions: 22 piglets, litters 115 and 116, condition C3
# Method: Founder animals for ARPKD were produced using the process of Example 8 with minor changes. The T36M reagents (ssPKHD1 CRISPR 3.1 and template ssPKHD1 3.1 36 T to M) were injected into in vivo produced porcine embryos at the 1 or 2 cell stage. Condition C3 was used for injection and the 60 resulting embryos were split equally between to synchronized recipients. A total of 22 piglets were born, 14 from one surrogate (litter ID 115) and 8 from the other (litter ID 116). Newborn piglets were visually assessed for fitness and four, 115-1, 115-2, 115-3 and 115-8 were reluctant to suckle from their mothers and had visible abdominal distension (Table 14). […] Each of the remaining piglets was analyzed for a visible phenotype at 20 days of age (Table 14). Genotype of the piglet was a strong indicator of disease severity as 115-1, 115-2, 115-3 and 115-8 are predicted to have null mutations on each allele while mild cases had some combination of T36M mutation or single allele mutations (Table 14). Overall, ˜55% of offspring were mutant with 5 showing T36M mutations (Table 15). This rate is lower than observed above. A key difference is the embryos source. Parthenogenetic embryos were used in previous experiments where timing of activation is tightly controlled. In contrast, this experiment used in vivo produced embryos (bred sows, embryos collected ˜18 hours post fertilization) where timing is variable. However, the hypothesis that a variety of disease alleles and severities could be produced in a single litter was confirmed.
# porcine PKHD1 [2] = test: Cytoplasmic injection of parthenogenetic pig embryos, single blastocyst RFLP assay and sequencing; assay type: cell-based; conditions: for RFLP In Embryos: pig embryos, with HDR template; for NHEJ n (%): R3229Q introgression
# Method: The best performing combinations of TALENs and CRISPRs identified above, are evaluated in vitro by injection of in vitro matured (IVM) parthenogenetic pig embryos (FIG. 9C). […] In a small pilot study targeting porcine PDX1, 80% of alleles injected with a TALEN dosage of 40 ng/μl were able to be mutated, with nearly half of those directed to a particular edit by a homology template (FIG. 11B). FIG. 11A illustrates the steps required in production of in vitro matured pig embryos for microinjection. FIG. 11B illustrates the difference in percent success which using different concentrations of editing reagents for the PDX1 gene. A similar dosage escalation study is used to optimize for T36M introgression that balances survival of embryos in vitro with editing efficiency.
# HDR efficiency was inversely associated with Cas9 dosage (50 vs 80% HDR) from highest to lowest concentration (Table 12 and FIG. 13A) likely a result of hyperactive cutting in the high concentration group. The fidelity of HDR events was further confirmed by sequencing (FIG. 13B) which confirms that the wild type triplet “ACA” coding, for threonine has been converted to “ATG” coding for methionine (FIG. 9A) using the template HDR sequence. Overall, condition C3, 25 ng/ul of Cas9, 12.5 ng/ul of gRNA and 50 ng/μl of ssHDR, was optimal for both blastocyst formation rate and HDR activity. If this site proves problematic, alternative missense mutations commonly observed in more than one family of ARPKD patients, such as I3553T, I222V, P805L or R3229Q are introgressed.
# By the same process as Example 8, R3229Q was engineered into the PKHD1 gene. R3229Q is the equivalent mutation to R3240Q in humans (FIG. 16A), which in a homozygous state causes moderate ARPKD. Also, as noted previously, the annotation of PKHD1 has changed since initial contigs placed R3240Q in exon 58 versus exon 65. Also, R3240Q in humans, maps to different residue numbers in pigs based on transcript selected. […] Injections into parthenogenetic embryos were performed as before, with two conditions using a ssODN as the homology template ssPKHD1 65.1 3240 R to Q (Table 10); C1 (100/50/50) (Cas9 mRNA/gRNA65.1/homology template, all ng/μl) and C3 (25/12.5/50) (Cas9 mRNA/gRNA65.1/homology template, all ng/μl) (Table 9). […] HDR was also prevalent in the C3 condition (75%) whereas total mutation rate (indels+HDR alleles) was 100 and 95% for C1 and C3 respectively. […] Blastocyst 3.19 is homozygous for R3229Q while 3.12 has one HDR allele and one indel allele.
# porcine PKHD1 [3] = test: Surveyor assay (cutting) and RFLP analysis (HDR) in transfected pig fibroblasts; assay type: cell-based; conditions: for activity among the TALENs and CRISPR gRNAs tested for the target: comparison of reagents developed for the same target; for cutting, In Fibroblast Cells Incubated at 30° / RFLP, In Fibroblast Cells Incubated at 30° / cutting, In Fibroblast Cells Incubated at 37° / RFLP, In Fibroblast Cells Incubated at 37°: pig fibroblasts; for cutting, In Fibroblast Cells Incubated at 30° / RFLP, In Fibroblast Cells Incubated at 30°: 30 degrees C; for cutting, In Fibroblast Cells Incubated at 30° / cutting, In Fibroblast Cells Incubated at 37°: three days recovery, Surveyor assay; for RFLP, In Fibroblast Cells Incubated at 30° / RFLP, In Fibroblast Cells Incubated at 37°: with HDR template, RFLP assay; for cutting, In Fibroblast Cells Incubated at 37° / RFLP, In Fibroblast Cells Incubated at 37°: 37 degrees C
# Excerpt: FIG. 12A, FIG. 12B: T36M introgression in cells. […] The region is highly conserved and threonine acid at position 36 in humans corresponds to residue 36 in pigs. Threonine acid 36 is identified in pig genomic DNA sequence, and […] (maroon arrow) are designed to cleave near T36. FIG. 12A also discloses SEQ ID NO: 118. […] It should be noted that position 3553 in pigs is a Valine residue and not pathogenic; henceforth this mutation will be referred to as either I3553T or V3553T. The cells were recovered for three days at 30 and 37 degrees C. prior to quantification of activity by the Surveyor assay and RFLP analysis with the Nsp1 restriction enzyme. The arrowheads depict the expected size of cleavage products for the Surveyor assay or RFLP assay.
# A number of quality sites for TALENs and CRISPRs are ideally positioned for HDR mediated introgression the T36M mutation (Table 7, Table 8, Table 9). The assembled reagents are tested in pig fetal fibroblasts and embryos using standard operating procedures (SOPs) (FIG. 9B). Using these methods, hundreds of loci in pig and cattle have been successfully targeted, with efficiencies ranging from 5-75% in cultured cells.
# For introgression of T36M into the porcine genome, two CRISPR Cas9 gRNAs and TALENs were tested in pig fibroblasts and embryos to optimize conditions (FIG. 12A, FIG. 12B, Table 7, Table 8, Table 9).
# [4] = C1 (100/50/50) ng/μl Cas9/gRNA/ssODN, T36M template
# [5] = C2 (50/25/50) ng/μl Cas9/gRNA/ssODN, T36M template
# [6] = C3 (25/12.5/50) ng/μl Cas9/gRNA/ssODN, T36M template
molecule,measurement,setting,value
CC/C(=C(\c1ccccc1)c1ccc(OCCN(C)C)cc1)c1ccccc1 [tamoxifen],activation of the integrated PKD1^FLEX-CreER2 cassette,PKD1^FLEX-CreER2,> 80%
"ssPKHD1 CRISPR 3.1: CRISPR guide RNA (SEQ ID NO: 103) targeting exon 3 of porcine PKHD1, used with Cas9 mRNA and T36M HDR template (guide GGATTACCGTGTTCTTCGATGG; chemistry not given here)",Heterozygous T36M % (number),porcine PKHD1 [1],9% (2/22)
same,Homozygous T36M % (number),porcine PKHD1 [1],13.6% (3/22)
same,Wild type % (number),porcine PKHD1 [1],45.5% (10/22)
same,Mutated n (%),porcine PKHD1 [2]; [4],17 (94.4%)
same,NHEJ^− n (%),porcine PKHD1 [2]; [4],7 (38.8%)
same,HDR^+ n (%),porcine PKHD1 [2]; [5],11 (55.0%)
same,Mutated n (%),porcine PKHD1 [2]; [5],19 (95.0%)
same,NHEJ^− n (%),porcine PKHD1 [2]; [5],8 (40.0%)
same,Mutated n (%),porcine PKHD1 [2]; [6],19 (95.0%)
same,NHEJ^− n (%),porcine PKHD1 [2]; [6],3 (15.0%)
same,embryos mutated,porcine PKHD1 [2]; CRISPR/Cas9 dosage of 25-100 ng/μl,Up to 95%
same,blastocyst formation rate (toxicity by embryo development analysis),"porcine PKHD1 [2]; cytoplasmic injection with HDR oligo at C1, C2, C3, highest in C3",high in each group
same,RFLP In Embryos,porcine PKHD1 [2],80% RFLP
same,activity among the TALENs and CRISPR gRNAs tested for the target,porcine PKHD1 [3],greatest activity in cells
same,"cutting, In Fibroblast Cells Incubated at 30°",porcine PKHD1 [3],0% cutting
same,"RFLP, In Fibroblast Cells Incubated at 30°",porcine PKHD1 [3],"RFLP detected, too"
same,"cutting, In Fibroblast Cells Incubated at 37°",porcine PKHD1 [3],30.8% cutting
same,"RFLP, In Fibroblast Cells Incubated at 37°",porcine PKHD1 [3],RFLP 44.7%
same,"RFLP, In Fibroblast Cells Incubated at 37°",porcine PKHD1 [3]; listed as CRISPR 3.1,up to 44.7%
ssPKHD1 CRISPR 3.2: CRISPR guide RNA (SEQ ID NO: 104) targeting exon 3 of porcine PKHD1 (guide GCAGCCTCGCAGGGGGAACATGG; chemistry not given here),RFLP In Embryos,porcine PKHD1 [2],0% RFLP
same,"cutting, In Fibroblast Cells Incubated at 30°",porcine PKHD1 [3],0% cutting at 30
same,"RFLP, In Fibroblast Cells Incubated at 30°",porcine PKHD1 [3],"RFLP detected, too"
same,"cutting, In Fibroblast Cells Incubated at 37°",porcine PKHD1 [3],0% cutting at 37
same,"RFLP, In Fibroblast Cells Incubated at 37°",porcine PKHD1 [3],"RFLP detected, too"
ssPKHD1 CRISPR 65.1: CRISPR guide RNA (SEQ ID NO: 105) for R3229Q (human R3240Q) introgression into porcine PKHD1 (guide GGGGTCGAGTTGGTATATTGTGG; chemistry not given here),NHEJ n (%),porcine PKHD1 [2]; C1 (100/50/50) ng/μl,2 (10.5%)
same,NHEJ n (%),porcine PKHD1 [2]; C3 (25/12.5/50) ng/μl,4 (15.0%)
same,RFLP In Embryos,porcine PKHD1 [2],89%
same,activity among the TALENs and CRISPR gRNAs tested for the target,porcine PKHD1 [3],greatest activity
same,"cutting, In Fibroblast Cells Incubated at 30°",porcine PKHD1 [3],"Cutting detected, too"
same,"RFLP, In Fibroblast Cells Incubated at 30°",porcine PKHD1 [3],7.3% RFLP
same,"cutting, In Fibroblast Cells Incubated at 37°",porcine PKHD1 [3],"Cutting detected, too"
same,"RFLP, In Fibroblast Cells Incubated at 37°",porcine PKHD1 [3],11% RFLP
